Source: patent publication US7384788B2, “Regulator/promoter for tunable gene expression and metabolite sensing” (priority 2003, dated 2008)

Assays:
luxCDABE gene fusions = settings: cited from earlier work
E. coli strain DE112 = experiment: Growth inhibition by pHBA treatment; assay type: cell-based; settings: Escherichia coli, 25 mM pHBA (acid form), Vogel-Bonner minimal medium with glucose
Protocol: (§1) The alterations in the E. coli gene expression profile upon exposure to pHBA were examined using DNA microarray technology. E. coli strain DE112 (Van Dyk et al. Appl. Environ. Microbiol. 60:1414-1420 (1994)) was grown in Vogel-Bonner minimal medium with glucose as a carbon source to an OD600 of 0.2. At this point the culture was split in two flasks and pHBA in the acid form was added to one flask from a stock solution in ethanol to achieve a final pHBA concentration of 25 mM. The pH of the medium in the flask with pHBA was lowered by an unmeasured amount. An equivalent volume of ethanol without pHBA was added to the other flask. Approximately 58% growth inhibition resulted from the pHBA treatment under these conditions. Cells were harvested from the control and treated flasks at 30 and 60 minutes after pHBA addition. RNA isolation, array hybridization, and data analysis were done as previously described (Wei et al, J. Bacteriol. 183:545-556 (2001), Smulski et al. J. Bacteriol. 183:3353-3364 (2001)). […] These three genes are predicted to be transcribed as an operon. The reproducible observed co-regulation in response to pHBA treatment is consistent with this prediction. Thus, these three genes will be referred to as the yhcRQP operon.

[1] = test system: yhcRQP-luxCDABE gene fusion; experiment: Bioluminescence response in yhcS- strain DPD2437 (yhcS::TN<Kan>); assay type: cell-based, E. coli; settings: thirty minutes, LB pH 7.0
Source text: (§2) A derivative of E. coli strain MG1655 (obtained from Prof. Douglas Berg, Washington University School of Medicine, St. Louis, […].) with the yhcS::TN<Kan> mutation was made by P1clr100Cm mediated transduction using phage grown on strain DPD2410 as a donor and selection for kanamycin resistance. The presence of the yhcS::TN<Kan> mutation in one of the resultant transductants, named DPD2433, was confirmed by PCR amplification. Plasmid pDEW655 was moved to E. coli strains MG1655 and DPD2433 by transformation, selecting for Ampicillin resistance to generate strains DPD2436 and DPD2437, respectively. The bioluminescent response of these two strains to pHBA was tested. Aliquots (50 μl) of actively growing cultures at 37° C. in LB medium that had been previously diluted, and from overnight cultures in LB medium with 150 μg/ml Ampicillin were added to 50 μl of LB medium at pH 7.0 containing pHBA as the sodium salt form. Several concentrations of pHBA were tested.

[2] = test system: yhcRQP-luxCDABE gene fusion; experiment: Bioluminescence response in yhcS+ strain DPD2436 (MG1655 host); assay type: cell-based, E. coli; settings: thirty minutes, LB pH 7.0
Source text: as §2, with “The presence of the yhcS::TN<Kan> mutation in one of the resultant transductants, named DPD2433, was confirmed by PCR amplification.” left out
Further characterization of the signals that trigger activation of YhcS, was done using the yhcRQP-luxCDABE gene fusion containing E. coli strains DPD2411 or DPD2436.

yhcP = experiment: DNA microarray gene expression profiling of pHBA-treated E. coli; assay type: cell-based; settings: 25 mM pHBA, 60 minutes
Protocol: as §1

yhcR = experiment: as above; assay type: cell-based; settings: 25 mM pHBA, 60 minutes
Protocol: as §1

yhcQ = experiment: as above; assay type: cell-based; settings: 25 mM pHBA, 60 minutes
Protocol: as §1

[3] = test system: yhcRQP-luxCDABE gene fusion; experiment: Bioluminescence kinetics in yhcS+ strain DPD2413 (DH5alphaE host), FIG. 1; assay type: cell-based, E. coli; settings: 5 mM pHBA acid form, yhcS+ strain DPD2413, LB medium
Protocol: (§3) E. coli strain DPD2410 is the DH5αE derived strain containing the yhcS::TN<Kan> mutation. Strains DH5αE and DPD2410 were transformed with pDEW655 to generate E. coli strains DPD2413 and DPD2415, respectively. […] The plate was incubated for 90 minutes at 37° C.; then 50 μl of the cultures was added to 50 μl of LB medium or to 50 μl of LB medium containing pHBA in the acid form, which had been added from a stock solution in ethanol. The final concentration of pHBA was 5 mM and the final concentration of ethanol was 0.25%. The pH of the medium with pHBA was lowered by an unmeasured amount. The bioluminescence was quantitated with a Luminoskan Ascent microplate luminometer (Thermo Labsystems, Franklin, Mass.). The results of this study are presented in FIG. 1, which is a plot of the bioluminescence intensity in relative light units (RLU) versus time in minutes. In the Figure, addition of pHBA was made at time zero. Solid lines are the response in the yhcS^+ strain, DPD2413. Dotted lines are the response in the yhcS^− strain, DPD2415. Circles represent pHBA treated cultures and triangles represent untreated cultures.

[4] = test system: yhcRQP-luxCDABE gene fusion; experiment: Bioluminescence kinetics in yhcS- strain DPD2415 (yhcS::TN<Kan>), FIG. 1; assay type: cell-based, E. coli; settings: 5 mM pHBA acid form, yhcS::TN<Kan> strain DPD2415, LB medium
Protocol: as §3

CCn1cc(C(=O)O)c(=O)c2ccc(C)nc21 [nalidixic acid]
up-regulation of genes in luxCDABE gene fusion collection (luxCDABE gene fusions): selective up-regulation of ten genes

O=C(O)c1ccc(O)cc1 [pHBA, para-hydroxybenzoic acid]
inhibition at 25000 µM (E. coli strain DE112): ~58% | RLU yhcS- ([1]; 1.6 mM pHBA sodium salt): 1.02 RLU | Ratio treated/control yhcS- ([1]; 1.6 mM pHBA sodium salt): 1.25 | RLU yhcS- ([1]; 3.1 mM pHBA sodium salt): 1.16 RLU | Ratio treated/control yhcS- ([1]; 3.1 mM pHBA sodium salt): 1.42 | RLU yhcS- ([1]; 6.2 mM pHBA sodium salt): 1.42 RLU | Ratio treated/control yhcS- ([1]; 6.2 mM pHBA sodium salt): 1.75 | RLU yhcS- ([1]; 12.5 mM pHBA sodium salt): 1.82 RLU | Ratio treated/control yhcS- ([1]; 12.5 mM pHBA sodium salt): 2.23 | RLU yhcS- ([1]; 25 mM pHBA sodium salt): 1.59 RLU | Ratio treated/control yhcS- ([1]; 25 mM pHBA sodium salt): 1.95 | RLU yhcS- ([1]; 50 mM pHBA sodium salt): 0.614 RLU | Ratio treated/control yhcS- ([1]; 50 mM pHBA sodium salt): 0.753 | RLU yhcS- ([1]; 100 mM pHBA sodium salt): 0.045 RLU | Ratio treated/control yhcS- ([1]; 100 mM pHBA sodium salt): 0.055 | RLU yhcS+ ([2]; 1.6 mM pHBA sodium salt): 6.72 RLU | Ratio treated/control yhcS+ ([2]; 1.6 mM pHBA sodium salt): 10.6 | RLU yhcS+ ([2]; 3.1 mM pHBA sodium salt): 10.2 RLU | Ratio treated/control yhcS+ ([2]; 3.1 mM pHBA sodium salt): 16.2 | RLU yhcS+ ([2]; 6.2 mM pHBA sodium salt): 16.2 RLU | Ratio treated/control yhcS+ ([2]; 6.2 mM pHBA sodium salt): 25.7 | RLU yhcS+ ([2]; 12.5 mM pHBA sodium salt): 30.8 RLU | Ratio treated/control yhcS+ ([2]; 12.5 mM pHBA sodium salt): 48.8 | RLU yhcS+ ([2]; 25 mM pHBA sodium salt): 66.6 RLU | Ratio treated/control yhcS+ ([2]; 25 mM pHBA sodium salt): 106 | RLU yhcS+ ([2]; 50 mM pHBA sodium salt): 91.7 RLU | Ratio treated/control yhcS+ ([2]; 50 mM pHBA sodium salt): 145 | RLU yhcS+ ([2]; 100 mM pHBA sodium salt): 0.437 RLU | Ratio treated/control yhcS+ ([2]; 100 mM pHBA sodium salt): 0.693 | Ratio (treated/untreated) (yhcP; experiment 1): 6.45 | Signal in pHBA treated (yhcP; experiment 1): 7.52 | Ratio (treated/untreated) (yhcP; experiment 2): 12.1 | Signal in pHBA treated (yhcP; experiment 2): 12.0 | Ratio (treated/untreated) (yhcR; experiment 1): 72.3 | Signal in pHBA treated (yhcR; experiment 1): 1.37 | Ratio (treated/untreated) (yhcR; experiment 2): 10.5 | Signal in pHBA treated (yhcR; experiment 2): 7.18 | Ratio (treated/untreated) (yhcQ; experiment 1): 4.09 | Signal in pHBA treated (yhcQ; experiment 1): 1.61 | Ratio (treated/untreated) (yhcQ; experiment 2): 22.3 | Signal in pHBA treated (yhcQ; experiment 2): 6.02 | upregulation of yhcRQP-luxCDABE expression (in words, FIG. 1) [3]: rapid and dramatic upregulation | upregulation of yhcRQP-luxCDABE expression (in words, FIG. 1) [4]: essentially abolished
